Where two headings read alike, the source gives them in different places. Some results are limits rather than exact numbers.

Experimental findings from patent publication US20240101572A1, “DIHYDROOXADIAZINONE COMPOUND AND PHARMACEUTICAL USE THEREOF” (Japan Tobacco Inc., priority 2022, published 2024) are described below.

The target in one assay is full-length human PLD1 (Homo sapiens (Human), UniProt Q13393). Kind of assay: Evaluation of human PLD1 enzyme inhibitory activity (Amplex Red / choline oxidase fluorescence). In kind it is biochemical. The procedure, abridged: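 N-terminally FLAG-tagged full-length human PLD1 (1-1036), expressed in Expi293F and FLAG-purified, incubated with compound (5% DMSO final) and 1,2-diheptanoyl-sn-glycero-3-phosphocholine for 60 min at room temperature in HEPES pH 7.5 buffer. Released choline detected by Amplex Red/choline oxidase/HRP fluorescence.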
full-length human PLD1, sequence (Q13393 other isoform, or with tags, fused parts or gaps): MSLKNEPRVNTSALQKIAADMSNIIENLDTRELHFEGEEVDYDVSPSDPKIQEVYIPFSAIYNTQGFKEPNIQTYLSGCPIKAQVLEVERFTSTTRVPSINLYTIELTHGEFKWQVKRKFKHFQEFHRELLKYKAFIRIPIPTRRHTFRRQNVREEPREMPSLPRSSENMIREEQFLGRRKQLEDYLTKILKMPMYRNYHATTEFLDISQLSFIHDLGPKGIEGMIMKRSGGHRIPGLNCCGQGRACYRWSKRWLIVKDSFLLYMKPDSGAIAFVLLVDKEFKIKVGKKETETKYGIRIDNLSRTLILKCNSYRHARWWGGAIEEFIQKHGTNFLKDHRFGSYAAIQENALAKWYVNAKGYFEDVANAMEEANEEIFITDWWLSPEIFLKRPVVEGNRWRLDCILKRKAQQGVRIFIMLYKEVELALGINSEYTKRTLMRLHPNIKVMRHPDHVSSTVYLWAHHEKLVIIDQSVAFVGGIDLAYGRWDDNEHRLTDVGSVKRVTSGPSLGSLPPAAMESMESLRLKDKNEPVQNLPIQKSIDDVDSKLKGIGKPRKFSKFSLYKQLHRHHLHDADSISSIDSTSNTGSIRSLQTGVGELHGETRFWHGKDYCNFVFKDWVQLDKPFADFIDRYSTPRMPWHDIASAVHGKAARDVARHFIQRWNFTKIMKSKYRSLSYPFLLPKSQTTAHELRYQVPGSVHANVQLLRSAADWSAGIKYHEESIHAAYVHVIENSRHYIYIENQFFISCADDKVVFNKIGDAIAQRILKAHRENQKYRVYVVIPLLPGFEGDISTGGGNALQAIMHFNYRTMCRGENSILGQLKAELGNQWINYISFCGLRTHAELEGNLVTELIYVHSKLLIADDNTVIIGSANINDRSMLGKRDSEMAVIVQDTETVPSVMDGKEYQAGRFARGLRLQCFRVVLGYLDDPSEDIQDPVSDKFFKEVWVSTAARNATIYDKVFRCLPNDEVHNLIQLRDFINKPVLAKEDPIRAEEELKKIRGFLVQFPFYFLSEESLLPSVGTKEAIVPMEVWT

A further assay has as its target full-length human PLD2 (Homo sapiens (Human), UniProt O14939). In words: Evaluation of human PLD2 enzyme inhibitory activity (Amplex Red / choline oxidase fluorescence). In kind it is biochemical. The procedure, abridged: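 Enzyme was N-terminal FLAG-tagged full-length human PLD2 (1-933), expressed in Expi293F cells and anti-FLAG purified. Compound (5% DMSO final) was incubated with enzyme (6 nmol/L solution) and 1,2-diheptanoyl-PC (6 mmol/L solution) in HEPES pH 7.5, KCl, EGTA, MgCl2, NP-40, BSA buffer for 60 min at room temperature. Choline was detected with Amplex Red/choline oxidase/HRP.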

Where [1] appears, read: full-length human PLD1 enzyme, read-out: PLD1 IC50.
Where [2] appears, read: full-length human PLD2 enzyme, read-out: PLD2 IC50.
Setting [3] is: column 1 of continuation tables 2-12 to 2-14, read-out: human PLD1 enzyme inhibitory activity IC50.
Where [4] appears, read: column 2 of continuation tables 2-12 to 2-14, read-out: human PLD2 enzyme inhibitory activity IC50.

full-length human PLD2, sequence (O14939 whole entry): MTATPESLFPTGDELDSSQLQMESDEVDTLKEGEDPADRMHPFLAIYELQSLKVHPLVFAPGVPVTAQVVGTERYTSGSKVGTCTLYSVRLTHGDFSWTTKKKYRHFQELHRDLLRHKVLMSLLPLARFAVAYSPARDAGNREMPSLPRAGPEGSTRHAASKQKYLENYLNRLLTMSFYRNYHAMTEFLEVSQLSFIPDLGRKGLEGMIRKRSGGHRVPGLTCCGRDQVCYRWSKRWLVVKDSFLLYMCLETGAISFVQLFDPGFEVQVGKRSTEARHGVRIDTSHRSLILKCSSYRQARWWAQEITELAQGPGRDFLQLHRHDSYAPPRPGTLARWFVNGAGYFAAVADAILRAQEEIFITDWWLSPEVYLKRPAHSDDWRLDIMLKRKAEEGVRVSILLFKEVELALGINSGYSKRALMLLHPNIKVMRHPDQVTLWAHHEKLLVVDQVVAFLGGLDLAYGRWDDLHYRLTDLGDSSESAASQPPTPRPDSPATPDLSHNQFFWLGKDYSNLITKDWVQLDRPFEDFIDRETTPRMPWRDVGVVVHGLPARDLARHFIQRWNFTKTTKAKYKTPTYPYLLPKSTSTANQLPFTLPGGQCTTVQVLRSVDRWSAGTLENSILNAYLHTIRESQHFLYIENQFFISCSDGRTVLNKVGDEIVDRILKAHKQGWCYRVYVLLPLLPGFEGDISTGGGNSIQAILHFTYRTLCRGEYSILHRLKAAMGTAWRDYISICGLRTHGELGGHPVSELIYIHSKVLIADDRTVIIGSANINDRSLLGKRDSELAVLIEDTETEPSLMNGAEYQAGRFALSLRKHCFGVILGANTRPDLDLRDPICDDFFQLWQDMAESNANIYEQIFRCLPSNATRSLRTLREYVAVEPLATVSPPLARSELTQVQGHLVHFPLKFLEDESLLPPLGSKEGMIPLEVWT

Consider `CC(C)=CC(=O)N[C@@H](C)CN1CCC2(CC1)OC(=O)NN=C2c1cc(C#N)ccc1Br` [Example 2-022], for which the figures for the IC50 on full-length human PLD1 (setting [1]) and on full-length human PLD2 (setting [2]) were 0.738 µM and 0.388 µM, respectively.
The matching figures for `CNC(=O)C(=O)N[C@@H](C)C[C@H]1CC[C@]2(CC1)OC(=O)NN=C2c1ccccc1SC` [Example 74]: below 0.01 µM and below 0.01 µM.
As for `C[C@@H](C[C@H]1CC[C@]2(CC1)OC(=O)NN=C2c1nccn1CC1CC1)NC(=O)c1cc2ccccc2o1` [Example 84], the IC50 at full-length human PLD1 (setting [1]) turned out to be 0.07 µM; at full-length human PLD2 (setting [2]), 0.053 µM.
The matching figures for `CNC(=O)C(=O)N[C@@H](C)C[C@H]1CC[C@]2(CC1)OC(=O)NN=C2c1ccc(C#N)cc1C` [Example 152]: 0.023 µM and 0.013 µM.
For `C[C@@H](CN1CCC2(CC1)OC(=O)NN=C2c1cc(C#N)ccc1Br)NC(=O)C1CCCO1` (mixture of isomers) [Example 2-048], the IC50 was 0.644 µM at full-length human PLD1 (setting [1]) and 1.01 µM on full-length human PLD2 (setting [2]).
With `C[C@@H](C[C@H]1CC[C@]2(CC1)OC(=O)NN=C2c1ccc(S(C)(=O)=O)cc1Br)NC(=O)c1cc(Cl)no1` [Example 48], the IC50 at full-length human PLD1 (setting [1]) was 0.014 µM; at full-length human PLD2 (setting [2]), below 0.01 µM.
The corresponding values for `C[C@@H](CN1CCC2(CC1)OC(=O)NN=C2c1ccc(F)cc1Cl)NC(=O)c1cc(Cl)no1` [Example 92] are 0.026 µM and 0.013 µM.
For `C[C@@H](C[C@H]1CC[C@]2(CC1)OC(=O)NN=C2c1ccc(OCC(C)(C)O)cc1Br)NC(=O)c1cc(Cl)no1` [Example 131], the IC50 at full-length human PLD1 (setting [1]) is 0.01 µM; at full-length human PLD2 (setting [2]), below 0.01 µM.
As to `Cc1cc(C(=O)N[C@@H](C)[C@@H](C)N2CCC3(CC2)OC(=O)NN=C3c2ccc(F)cc2Br)[nH]n1` [Example 290], the half-maximal inhibitory concentration (IC50) stood at 0.122 µM at full-length human PLD1 (setting [1]) and 0.046 µM at full-length human PLD2 (setting [2]).
As to `CNC(=O)C(=O)N[C@@H](C)C[C@H]1CC[C@]2(CC1)OC(=O)NN=C2c1cnc(C(=O)O)cc1C` [Example 186], the inhibition at 10 µM came out at 33% at full-length human PLD1 (10 μM compound, read-out: PLD1 inhibition rate at 10 μM); 33% on full-length human PLD1 (read-out: inhibition rate of PLD1 at 10 μM compound); 18% at full-length human PLD2 (10 μM compound, read-out: PLD2 inhibition rate at 10 μM); 18% at full-length human PLD2 (read-out: inhibition rate of PLD2 at 10 μM compound).
As for `CNC(=O)C(=O)N[C@@H](C)CC1CCC2(CC1)OC(=O)NN=C2c1ccncc1C` (mixture of isomers) [Example 125], the IC50 at full-length human PLD1 (setting [1]) was 0.04 µM; on full-length human PLD2 (setting [2]), 0.057 µM.
The matching figures for `CNC(=O)C(=O)N[C@@H](C)C[C@H]1CC[C@]2(CC1)OC(=O)NN=C2c1ccc(F)cc1C(F)(F)F` [Example 56]: 0.026 µM and 0.017 µM.
Take `CNC(=O)C(=O)N[C@@H](C)[C@@H](C)N1CCC2(CC1)OC(=O)NN=C2c1ccc(F)cc1Br` [Example 291]: the IC50 on full-length human PLD1 (setting [1]) was found to be 0.15 µM; on full-length human PLD2 (setting [2]) it was 0.234 µM.
For the molecule `Cc1cc(C(=O)N[C@@H](C)CN2CCC3(CC2)OC(=O)NN=C3c2cc(C#N)ccc2Cl)[nH]n1` [Example 2-007], the figures for the IC50 at full-length human PLD1 (setting [1]) and on full-length human PLD2 (setting [2]) were 0.028 µM and below 0.01 µM, respectively.
The matching figures for `C[C@@H](C[C@H]1CC[C@]2(CC1)OC(=O)NN=C2c1ccc(C#N)cc1Br)NC(=O)N1CCn2nncc2C1` [Example 271]: 0.018 µM and below 0.01 µM.
The matching figures for `COC(=O)/C=C/C(=O)N[C@@H](C)CN1CCC2(CC1)OC(=O)NN=C2c1cc(C#N)ccc1Br` [Example 2-024]: 0.046 µM and 0.028 µM.
Regarding `CNC(=O)C(=O)N[C@@H](C)C[C@H]1CC[C@]2(CC1)OC(=O)NN=C2c1ccc(F)cc1Br` [Example 14], the IC50 on full-length human PLD1 (setting [1]) was 0.01 µM; at full-length human PLD2 (setting [2]), below 0.01 µM.
The corresponding values for `C[C@@H](C[C@H]1CC[C@]2(CC1)OC(=O)NN=C2c1ccc(Br)cc1)NC(=O)c1cc2ccccc2o1` [Example 50] are 0.033 µM and 0.051 µM.
The corresponding values for `Cc1cc(C(=O)N[C@@H](C)C[C@H]2CC[C@]3(CC2)OC(=O)NN=C3c2cnc(N3C[C@H]4C[C@@H]3CO4)cc2Cl)[nH]n1` [Example 239] are 0.018 µM and below 0.01 µM.
As to `CNC(=O)C(=O)N[C@@H](C)C[C@H]1CC[C@]2(CC1)OC(=O)NN=C2c1cc(OC(F)(F)F)ccc1Br` [Example 294], the 50% inhibitory concentration (IC50) was 0.011 µM at full-length human PLD1 (setting [1]) and below 0.01 µM on full-length human PLD2 (setting [2]).
`CNC(=O)C(=O)N[C@@H](C)C[C@H]1CC[C@]2(CC1)OC(=O)NN=C2c1ccc(F)cc1CCC(F)(F)F` [Example 135]: the results for the IC50 at full-length human PLD1 (setting [1]) and at full-length human PLD2 (setting [2]) were 0.086 µM and 0.033 µM, respectively.
On to `Cc1cc(C(=O)N[C@@H](C)C[C@H]2CC[C@]3(CC2)OC(=O)NN=C3c2cccc3c2OCC3)[nH]n1` [Example 107], for which the figures for the IC50 at full-length human PLD1 (setting [1]) and on full-length human PLD2 (setting [2]) were 0.085 µM and 0.139 µM, respectively.
For the molecule `Cc1cc(C(=O)N[C@@H](C)CN2CCC3(CC2)OC(=O)NN=C3c2ccc(S(C)(=O)=O)cc2Cl)[nH]n1` [Example 128], the results for the IC50 on full-length human PLD1 (setting [1]) and at full-length human PLD2 (setting [2]) were 0.186 µM and 0.06 µM, respectively.
The matching figures for `CNC(=O)C(=O)N[C@@H](C)CN1CCC2(CC1)OC(=O)NN=C2c1cc(C#N)ccc1Cl` [Example 2-006]: 0.056 µM and 0.011 µM.
For the molecule `Cc1cc(C(=O)N[C@@H](C)C[C@H]2CC[C@]3(CC2)OC(=O)NN=C3c2ccc(Br)cc2)[nH]n1` [Example 22], the IC50 amounted to 0.066 µM at full-length human PLD1 (setting [1]) and 0.049 µM at full-length human PLD2 (setting [2]).
In the case of `[2H]C([2H])([2H])NC(=O)C(=O)N[C@@H](C)C[C@]1(C#N)CC[C@@]2(CC1)OC(=O)NN=C2c1cc(OC(F)(F)F)ccc1Br` [Example 2-132], the IC50 was 0.011 µM at full-length human PLD1 (setting [3]) and below 0.01 µM at full-length human PLD2 (setting [4]).
With `CNC(=O)C(=O)N[C@@H](C)C[C@H]1CC[C@]2(CC1)OC(=O)NN=C2c1ccc(C(C)(C)O)cc1C` [Example 178], the IC50 on full-length human PLD1 (setting [1]) is 0.014 µM; on full-length human PLD2 (setting [2]) it was 0.017 µM.
The matching figures for `CC(C)C(=O)N[C@@H](C)C[C@H]1CC[C@]2(CC1)OC(=O)NN=C2c1ccc(F)cc1Br` [Example 20]: 1.65 µM and 3.77 µM.
Regarding `C[C@@H](C[C@H]1CC[C@]2(CC1)OC(=O)NN=C2c1ccc(S(C)(=O)=O)cc1Cl)NC(=O)c1cc2cc(F)ccc2o1` [Example 117], the figures for the half-inhibitory concentration (IC50) at full-length human PLD1 (setting [1]) and on full-length human PLD2 (setting [2]) were 0.021 µM and 0.018 µM, respectively.
The corresponding values for `CNC(=O)C(=O)N[C@@H](C)C[C@H]1CC[C@]2(CC1)OC(=O)NN=C2c1cnc(OC)cc1C` [Example 154] are 0.027 µM and 0.014 µM.
The corresponding values for `Cc1cc(C(=O)N[C@@H](C)C[C@H]2CC[C@]3(CC2)OC(=O)NN=C3c2ccc(F)cc2Cl)[nH]n1` [Example 45] are 0.027 µM and 0.023 µM.
The matching figures for `Cc1cc(F)ccc1C1=NNC(=O)O[C@]12CC[C@@H](C[C@H](C)NC(=O)c1ccc(Cl)cc1F)CC2` [Example 88]: 0.056 µM and 0.065 µM.
Turning to `Cc1cc(C(=O)N[C@@H](C)CN2CC[C@@]3(C[C@H]2C)OC(=O)NN=C3c2ccc(C#N)cc2Cl)[nH]n1` [Example 232], the figures for the IC50 at full-length human PLD1 (setting [1]) and on full-length human PLD2 (setting [2]) were 2.58 µM and 2.13 µM, respectively.
The corresponding values for `Cc1ccncc1C1=NNC(=O)O[C@]12CC[C@@H](C[C@H](C)NC(=O)c1nc3ccccc3[nH]1)CC2` [Example 146] are 0.02 µM and below 0.01 µM.
The corresponding values for `Cc1ncccc1C1=NNC(=O)O[C@]12CC[C@@H](C[C@H](C)NC(=O)c1cc3ccccc3o1)CC2` [Example 104] are 0.075 µM and 0.217 µM.
For `CC(=O)Nc1cccc2[nH]c(C(=O)N[C@@H](C)C[C@H]3CC[C@]4(CC3)OC(=O)NN=C4c3ccc(F)cc3)cc12` [Example 142], the IC50 at full-length human PLD1 (setting [1]) is 0.022 µM; at full-length human PLD2 (setting [2]), below 0.01 µM.
For `CNC(=O)C(=O)N[C@@H](C)C[C@H]1CC[C@]2(CC1)OC(=O)NN=C2c1ccc(S(C)(=O)=O)cc1Br` [Example 33], the half-inhibitory concentration (IC50) on full-length human PLD1 (setting [1]) was 0.025 µM; on full-length human PLD2 (setting [2]), below 0.01 µM.
The matching figures for `Cc1cc(C(=O)N[C@@H](C)CN2CCC3(CC2)OC(=O)NN=C3c2ccc(C#N)cc2Br)[nH]n1` [Example 207]: 0.025 µM and below 0.01 µM.
The corresponding values for `C[C@@H](CN1CCC2(CC1)OC(=O)NN=C2c1ccc(F)cc1Cl)NC(=O)c1cc(C(F)(F)F)on1` [Example 99] are 0.241 µM and 0.373 µM.
Regarding `[2H]C([2H])([2H])NC(=O)C(=O)N[C@@H](C)C[C@]1(C#N)CC[C@@]2(CC1)OC(=O)NN=C2c1ccc(F)cc1Br` [Example 2-134], the IC50 is 0.018 µM at full-length human PLD1 (setting [3]) and below 0.01 µM at full-length human PLD2 (setting [4]).
Take `C[C@@H](C[C@H]1CC[C@]2(CC1)OC(=O)NN=C2c1cnc(N2CCOCC2)cc1Cl)NC(=O)N1CCn2nccc2C1` [Example 275]: the IC50 at full-length human PLD1 (setting [1]) is 0.025 µM; on full-length human PLD2 (setting [2]), below 0.01 µM.
The matching figures for `Cc1cc(C(=O)N[C@@H](C)C[C@H]2CC[C@]3(CC2)OC(=O)NN=C3c2cnc(N3CCOCC3)cc2C)[nH]n1` [Example 221]: 0.016 µM and below 0.01 µM.
For `C[C@@H](C[C@H]1CC[C@]2(CC1)OC(=O)NN=C2c1ccc(C#N)cc1Br)NC(=O)N1Cc2ccccc2C1` [Example 109], the IC50 is 0.012 µM at full-length human PLD1 (setting [1]) and below 0.01 µM on full-length human PLD2 (setting [2]).
As to `CNC(=O)C(=O)N[C@@H](C)C[C@H]1CC[C@]2(CC1)OC(=O)NN=C2c1cnc(N2CCC(F)(F)CC2)cc1Cl` [Example 274], the IC50 at full-length human PLD1 (setting [1]) was 0.017 µM; at full-length human PLD2 (setting [2]), below 0.01 µM.

As usually defined, the IC50 is the concentration that inhibits the measured activity by half. In general, inhibition refers to how much of the control response was suppressed.
